ChEMBL document CHEMBL1201862, “PubChem BioAssay data set” (2004)
Calls of active or inactive are those of the source.

Tests used:
[1] = test system: Vero; assay: Vero cell toxicity, dose response, cytotoxicity control, plate reader, cherry-pick samples (AID 687020); format: functional, cell-based; details: Chlorocebus sabaeus
[2] = test system: HeLa; assay: HeLa cell cytotoxicity, dose response, cytotoxicity control, ATP luminescence, cherry-pick samples (AID 687004); format: functional, cell-based; details: Homo sapiens
[3] = molecular target: SWI/SNF-related matrix-associated actin-dependent regulator of chromatin subfamily A member 2 (Homo sapiens, UniProt P51531); assay: Luminescence-based cell-based high throughput dose response assay to identify activators of the function of SWI/SNF related, matrix associated, actin dependent regulator of chromatin, subfamily a, member 2 (SMARCA2, BRM).; format: functional
Sequence of SWI/SNF-related matrix-associated actin-dependent regulator of chromatin subfamily A member 2 (P51531 whole entry): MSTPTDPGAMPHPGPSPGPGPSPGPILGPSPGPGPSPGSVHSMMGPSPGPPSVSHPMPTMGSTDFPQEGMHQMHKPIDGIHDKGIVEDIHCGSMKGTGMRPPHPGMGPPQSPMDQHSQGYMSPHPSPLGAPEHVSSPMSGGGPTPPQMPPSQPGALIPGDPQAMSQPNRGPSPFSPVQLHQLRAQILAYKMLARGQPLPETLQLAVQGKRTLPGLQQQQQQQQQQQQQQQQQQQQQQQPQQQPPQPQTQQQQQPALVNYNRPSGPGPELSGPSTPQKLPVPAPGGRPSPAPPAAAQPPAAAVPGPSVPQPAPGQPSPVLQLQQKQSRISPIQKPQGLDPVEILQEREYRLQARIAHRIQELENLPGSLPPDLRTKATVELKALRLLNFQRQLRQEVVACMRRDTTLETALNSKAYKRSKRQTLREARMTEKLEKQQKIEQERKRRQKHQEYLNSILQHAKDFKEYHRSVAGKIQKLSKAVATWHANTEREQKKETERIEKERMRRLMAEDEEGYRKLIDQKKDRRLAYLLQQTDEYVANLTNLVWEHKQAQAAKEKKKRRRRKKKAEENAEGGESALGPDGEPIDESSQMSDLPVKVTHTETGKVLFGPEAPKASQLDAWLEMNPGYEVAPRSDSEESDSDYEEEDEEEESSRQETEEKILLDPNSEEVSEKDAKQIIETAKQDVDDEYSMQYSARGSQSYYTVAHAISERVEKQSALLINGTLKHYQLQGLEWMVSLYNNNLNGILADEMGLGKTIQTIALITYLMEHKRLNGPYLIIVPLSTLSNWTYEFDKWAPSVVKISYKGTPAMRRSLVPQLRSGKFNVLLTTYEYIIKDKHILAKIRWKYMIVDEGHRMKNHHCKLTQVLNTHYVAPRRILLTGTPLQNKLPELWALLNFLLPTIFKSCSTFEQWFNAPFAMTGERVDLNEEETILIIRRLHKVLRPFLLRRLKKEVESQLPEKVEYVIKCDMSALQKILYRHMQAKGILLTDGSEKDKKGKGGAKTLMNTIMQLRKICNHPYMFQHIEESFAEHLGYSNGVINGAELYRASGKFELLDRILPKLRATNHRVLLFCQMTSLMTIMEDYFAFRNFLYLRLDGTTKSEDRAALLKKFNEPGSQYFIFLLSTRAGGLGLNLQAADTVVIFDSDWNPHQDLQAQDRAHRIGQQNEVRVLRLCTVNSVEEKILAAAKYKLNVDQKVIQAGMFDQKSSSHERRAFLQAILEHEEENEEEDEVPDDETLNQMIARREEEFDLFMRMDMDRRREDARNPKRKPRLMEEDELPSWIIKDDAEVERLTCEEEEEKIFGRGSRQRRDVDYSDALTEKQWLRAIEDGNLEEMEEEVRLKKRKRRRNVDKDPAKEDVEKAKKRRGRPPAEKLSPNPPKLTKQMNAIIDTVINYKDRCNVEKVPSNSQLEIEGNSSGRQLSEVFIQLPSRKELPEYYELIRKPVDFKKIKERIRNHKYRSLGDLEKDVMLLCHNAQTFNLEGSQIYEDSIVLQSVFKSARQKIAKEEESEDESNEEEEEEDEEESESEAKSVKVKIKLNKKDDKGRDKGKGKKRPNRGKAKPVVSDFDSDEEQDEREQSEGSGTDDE

[4] = Counterscreen for activators of the function of SWI/SNF related, matrix associated, actin dependent regulator of chromatin, subfamily a, member 2 (SMARCA2, BRM): Luminescence-based cell-based high throughput dose response assay to identify non-selective compounds using the VP16 reporter assay.; format: functional
[5] = IGROV1 ovarian cancer cell cytotoxicity, dose response, PAX8 inhibitor project, plate reader, dry powder samples (AID 743043); format: functional, cell-based; details: IGROV-1
[6] = molecular target: Paired box protein Pax-8 (Homo sapiens, UniProt Q06710); assay: inhibitors of PAX8-driven TPO luciferase reporter, dose response, RMG-I cells, cherry-pick (AID 687027); format: functional, cell-based;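 also: luciferase reporter driven by Pax8 target thyroperoxidase promoter measured by SteadyGlo luminescence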
Sequence of Paired box protein Pax-8 (Q06710 whole entry): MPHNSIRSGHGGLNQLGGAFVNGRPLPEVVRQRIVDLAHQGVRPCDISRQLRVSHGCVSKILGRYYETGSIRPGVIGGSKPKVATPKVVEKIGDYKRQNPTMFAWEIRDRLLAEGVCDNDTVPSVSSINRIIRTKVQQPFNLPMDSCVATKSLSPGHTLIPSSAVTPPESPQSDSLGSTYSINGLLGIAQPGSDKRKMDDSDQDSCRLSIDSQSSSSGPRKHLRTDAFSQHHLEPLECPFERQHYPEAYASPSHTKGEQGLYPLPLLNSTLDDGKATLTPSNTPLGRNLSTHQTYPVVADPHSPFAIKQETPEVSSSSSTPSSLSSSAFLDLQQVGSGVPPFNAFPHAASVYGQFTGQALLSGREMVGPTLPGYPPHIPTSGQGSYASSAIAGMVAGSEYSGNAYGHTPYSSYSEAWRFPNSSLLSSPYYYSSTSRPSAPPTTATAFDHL

[7] = NIH:OVCAR-3 ovarian cancer cell cytotoxicity, dose response, PAX8 inhibitor project, plate reader, dry powder samples (AID 743044); format: functional, cell-based
[8] = inhibitors of CMV-promoter luciferase reporter, dose response, counter-screen for Pax8 inhibitor project, cell-based, HEK293, luminescence, dry powder (AID 743020); format: functional
[9] = non-specific cell cytotoxicity, dose response, cytotoxicity control for PAX8 inhibitor project, plate reader, dry powder samples (AID 743021); format: functional, cell-based
[10] = cells; format: functional, cell-based
[11] = molecular target: T1, Trace amine-associated receptor 1 (Homo sapiens, UniProt Q96RJ0); assay: Counterscreen for agonists of the human trace amine associated receptor 1 (hTAAR1): Fluorescence-based cell-based high throughput dose response assay to identify hTAAR1 agonist that also desensitize TAAR1 receptor response.; format: functional
T1 sequence (Q96RJ0 whole entry): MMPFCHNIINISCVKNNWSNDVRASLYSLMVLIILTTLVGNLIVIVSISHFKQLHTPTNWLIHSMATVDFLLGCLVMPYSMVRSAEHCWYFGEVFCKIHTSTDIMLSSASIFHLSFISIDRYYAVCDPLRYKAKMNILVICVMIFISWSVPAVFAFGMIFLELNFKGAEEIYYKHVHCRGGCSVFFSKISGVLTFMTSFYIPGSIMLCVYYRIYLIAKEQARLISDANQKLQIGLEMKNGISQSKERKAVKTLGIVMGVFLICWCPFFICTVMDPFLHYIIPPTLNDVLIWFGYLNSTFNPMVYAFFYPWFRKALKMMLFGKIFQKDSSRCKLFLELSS

[12] = molecular target: T1, Trace amine-associated receptor 1; assay: Fluorescence-based cell-based high throughput dose response assay to identify agonists of the human trace amine associated receptor 1 (TAAR1).; format: functional
[13] = cells; format: functional, cell-based; remark: listed apart in the source
[14] = test system: A549; assay: A549 cell toxicity, dose response, cytotoxicity control, plate reader, cherry-pick samples (AID 687028); format: functional, cell-based; details: Homo sapiens
[15] = inhibitors of LMP1-driven NF-kB reporter, dose response, cell-based, EBV LMP1, luciferase, dry powder, set 2 (AID 624361); format: functional
[16] = LMP1-driven NF-kB reporter inhibition, dose response, cell-based, luciferase reporter, luminescence, dry powder, set 2 (AID 624376); format: functional
[17] = T. cruzi growth inhibition in host cells, dose response, cell-based, plate reader, dry powder, set 2 (AID 652275); format: functional
[18] = NIH/3T3 fibroblast cytotoxicity, dose response, cytotoxicity control, cell-based, plate reader, dry powder, set 2 (AID 652280); format: functional; details: NIH3T3
[19] = T. cruzi intracellular amastigote growth inhibition, dose response, imaging, CA-I/72 strain, bovine embryo skeletal muscle, dry powder (AID 651885); format: functional, cell-based
[20] = IRAP inhibitors, dose response, selectivity assay for ERAP1 modulator project, biochemical, Leu-AMC fluorescence, cherry-picked samples, set 2 (AID 743340)
[21] = P. falciparum Dd2 growth inhibitors, dose response, SYBR Green, cherry-picked samples (AID 1159567); format: functional, cell-based
[22] = HepG2 cell cytotoxicity, dose response, cytotoxicity control, cherry-picks, set 5 (AID 1053118); format: functional, cell-based
[23] = A549 cell cytotoxicity, dose response, cytotoxicity control, cherry-picks, 26 µM top dose (AID 1053119); format: functional, cell-based
[24] = HEK293 cell cytotoxicity, dose response, cytotoxicity control, cherry-picks, set 5 (AID 1053117); format: functional, cell-based
[25] = HepG2 cell cytotoxicity, dose response, cytotoxicity control, cherry-picked samples (AID 1159577); format: functional, cell-based
[26] = cytotoxicity in HeLa cells, dose response, cytotoxicity control, cell-based, plate reader, dry powder (AID 651946); format: functional

**Q.** Which AC50 [1] does the source give for `CN(C)C1(CNC(=O)C2CCN(S(=O)(=O)c3ccccc3C(F)(F)F)CC2)CCCCC1` here?
**A.** 36.2 µM (active)

**Q.** For `CCC(=O)N(C)C[C@H]1Oc2cc(-c3ccccc3)ccc2S(=O)(=O)N([C@H](C)CO)C[C@H]1C`, which AC50 [2] is on record?
**A.** 4.07 µM (active)

**Q.** Which results are given for `O=C(C=Cc1ccc(OCc2ccccc2)cc1)c1c(F)cccc1F`?
**A.** EC50 [3]: > 91.2 µM (inactive); EC50 [4]: > 91.2 µM (inactive)

**Q.** Which AC50 [5] does the source give for `C[C@@H]1CCCCO[C@@H](CN(C)S(=O)(=O)c2ccccc2)[C@H](C)CN([C@H](C)CO)C(=O)c2cc(NC(=O)Nc3ccc(C(F)(F)F)cc3)ccc2O1` here?
**A.** 57.1 µM (active)

**Q.** What about the AC50 [6] of the same compound?
**A.** 3.44 µM (active)

**Q.** And the AC50 [7]?
**A.** 20.2 µM (active)

**Q.** And the AC50 [8]?
**A.** 28.4 µM (active)

**Q.** What about the AC50 [9] of the same compound?
**A.** 54.7 µM (active)

**Q.** Which EC50 [10] does the source give for `CC(C)[C@H](NC(=O)c1ccc(Cl)cc1Cl)C(=O)N1CCC[C@H]1C(=O)NCCc1ccccc1Cl` here?
**A.** > 29.9 µM (inactive)

**Q.** What about the IC50 [11] of the same compound?
**A.** 3.47 µM (active)

**Q.** What about the EC50 [12] of the same compound?
**A.** 1.19 µM (active)

**Q.** What about the IC50 [13] of the same compound?
**A.** > 29.9 µM (inactive)

**Q.** With `CCOC(=O)[C@]12CCC=C1N(Cc1ccccc1)C(=O)[C@H](CC(=O)N1CCCC1)C2` as the compound, how does the AC50 [14] read?
**A.** 25.3 µM (active)

**Q.** For `COc1ccc(CNC(=O)c2cc3c(c(-c4cccc(-c5ccc(C#N)cc5)c4)n2)[C@@H](CCO)N([S@+]([O-])C(C)(C)C)C3)cc1`, which AbsAC35 [15] is on record?
**A.** 108.86 µM

**Q.** And the AbsAC35 [16]?
**A.** 56.25 µM

**Q.** Which AC50 [17] does the source give for `C[C@@H]1CN([C@@H](C)CO)C(=O)c2cc(-c3ccncc3)cnc2O[C@H]1CN(C)Cc1ccc(Oc2ccccc2)cc1` here?
**A.** 2.93 µM (active)

**Q.** And the AC50 [18]?
**A.** 15.3 µM (active)

**Q.** And the IC50 [19]?
**A.** > 20 µM (inactive)

**Q.** With `CCCN(C)C[C@@H]1OCCCC[C@H](C)Oc2ccc(NC(=O)Nc3ccc(F)cc3)cc2C(=O)N([C@H](C)CO)C[C@@H]1C` as the compound, how does the AC50 [20] read?
**A.** 13.1 µM (active)

**Q.** For `CO[C@H]1CN(C)C(=O)c2ccc(NC(=O)c3ccc(-c4ccccc4)cc3)cc2OC[C@@H](C)NC[C@H]1C`, which AC50 [21] is on record?
**A.** 6.23 µM (active)

**Q.** What about the AC50 [22] of the same compound?
**A.** 15.5 µM (active)

**Q.** And the AC50 [23]?
**A.** 26.2 µM (active)

**Q.** What about the AC50 [24] of the same compound?
**A.** 20.5 µM (active)

**Q.** And the AC50 [25]?
**A.** 22 µM (active)

**Q.** For `c1ccc(-c2nnc(SCc3cscn3)o2)cc1`, which AC50 [26] is on record?
**A.** > 52 µM (inactive)
